Data: PubChem BioAssay (NCI)
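Briefly, cells in 96-well plates were exposed to five compound concentrations for 48 h, and endpoints were estimated by linear interpolation. The concentration for 50% growth inhibition is given as GI50. TGI denotes the concentration required for complete inhibition of growth.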

How the values were obtained:
Assay in all cases: NCI-60 cell line screen, 48 h
[1] = system: HCT-15 colon
[2] = system: K-562 leukemia
[3] = system: SF-268 CNS
[4] = system: OVCAR-3 ovarian
[5] = system: UACC-62 melanoma
[6] = system: TK-10 renal
[7] = system: SK-MEL-28 melanoma
[8] = system: NCI-H522 lung
[9] = system: RPMI-8226 leukemia
[10] = system: SNB-19 CNS

Row | SMILES | GI50 [1] | TGI [1] | GI50 [2] | TGI [2] | GI50 [3] | TGI [3] | GI50 [4] | TGI [4] | GI50 [5] | TGI [5] | GI50 [6] | TGI [6] | GI50 [7] | TGI [7] | GI50 [8] | TGI [8] | GI50 [9] | TGI [9] | GI50 [10] | TGI [10]
1 | CC1CCC(C#N)(NOC2=NCCN2)CC1 (stereo not drawn) | 27.8 µM | > 100 µM | 29.8 µM | > 100 µM | 63.1 µM | > 100 µM | 28.9 µM | > 100 µM | 25.4 µM | > 100 µM | 26.3 µM | > 100 µM | > 100 µM | > 100 µM | 39.6 µM | > 100 µM | 40.4 µM | > 100 µM | > 100 µM | > 100 µM
2 | O=C(Nc1ccc([N+](=O)[O-])cc1)c1cc2ccccc2cc1O | 0.365 µM | 5.07 µM | 0.347 µM | > 100 µM | 0.515 µM | 15.2 µM | 0.397 µM | 15.8 µM | 0.336 µM | 1.45 µM | 0.402 µM | 6.82 µM | 0.448 µM | > 36.5 µM | 0.268 µM | 1.61 µM | 0.291 µM | 0.727 µM | 0.405 µM | 27.8 µM
3 | c1cc(C2N3CCCN2CC3)ccn1 (stereo not drawn) |  | > 100 µM |  | > 100 µM |  | 30.4 µM |  | > 100 µM |  | > 100 µM |  | > 100 µM |  | > 100 µM |  | 18.4 µM |  | 71 µM |  | > 100 µM
4 | COc1cccc2cc(N(C)c3nc(C)nc4ccsc34)ccc12 | < 0.01 µM | 13.5 µM | < 0.01 µM | > 48.6 µM | < 0.01 µM | 13.9 µM | < 0.01 µM |  | < 0.01 µM | 12.5 µM | 1.87 µM | 24.1 µM | 1.53 µM | 20 µM | < 0.01 µM |  | < 0.01 µM | 6.02 µM | < 0.01 µM | 22.9 µM
5 | Cc1sc2c(c1C)C(c1ccc(Cl)cc1)=N[C@@H](CC(=O)Nc1ccc(O)cc1)c1nnc(C)n1-2 | 1.46 µM | 14.9 µM | 0.499 µM | 60.3 µM | 11.8 µM | 50.8 µM | 0.888 µM | 18.7 µM | 0.162 µM | 18.1 µM | 0.0941 µM | 19 µM | 5.31 µM | 26.4 µM | 0.262 µM | 16.1 µM | 0.168 µM | 11.8 µM | 0.721 µM | 31.3 µM
6 | CCCCCCCCCCC(CN(CC)CC)C(O)c1ccccc1 (stereo not drawn) | 1.31 µM | 2.77 µM | 2.03 µM | 4.67 µM | 1.94 µM | 3.87 µM | 1.99 µM | 3.78 µM | 1.78 µM | 3.46 µM | 1.65 µM | 3.22 µM | 1.7 µM | 3.16 µM | 1.83 µM | 3.8 µM | 2.05 µM | 4.88 µM | 1.86 µM | 3.77 µM
7 | COc1ccc(NCc2c(O)ccc3ccccc23)cc1 |  | > 100 µM |  | 38.3 µM |  | 40.7 µM |  | > 100 µM |  | > 100 µM |  | 38.6 µM |  | 78.3 µM |  | 28 µM |  | 63.6 µM |  | > 100 µM
8 | COc1ccc(-c2cc3nccn3c(Nc3ncccc3C(N)=O)n2)cc1OC | 0.659 µM | > 100 µM | 4.59 µM | > 100 µM | 3.65 µM | > 100 µM | > 47 µM | > 100 µM | 0.742 µM | > 100 µM | 0.391 µM | > 29.8 µM | > 100 µM | > 100 µM | 1.18 µM | > 100 µM | 2.75 µM | > 100 µM | > 100 µM | > 100 µM
9 | O=C(Cc1ccccc1)NN1C(=O)C(Cl)C1c1ccccc1 (stereo not drawn) |  | > 100 µM |  | > 100 µM |  | > 100 µM |  | > 100 µM |  | > 100 µM |  | > 100 µM |  | > 100 µM |  | 3.93 µM |  | 52.8 µM |  | > 100 µM
10 | COC(=O)C1CCC(N2C(=O)CCC2C(=O)OC)=N1 (stereo not drawn) |  | > 100 µM |  | > 100 µM |  | > 100 µM |  | > 100 µM |  | > 100 µM |  | > 100 µM |  | > 100 µM |  | > 100 µM |  | > 100 µM |  | > 100 µM
11 | Cc1cccc(NC(=O)Cc2nc3ccccc3s2)c1C |  | > 100 µM |  | > 100 µM |  | > 100 µM |  | > 100 µM |  | > 100 µM |  | > 100 µM |  | > 100 µM |  | > 100 µM |  | > 100 µM |  | > 100 µM
12 | COc1ccc(Cn2cc3c(c2-c2ccccc2)CCc2cncnc2-3)cc1 | 4.3 µM | 16.5 µM | 2.75 µM | 11.3 µM | 9.63 µM | 22.2 µM | 3.65 µM | 12.5 µM | 3.47 µM | 16.5 µM | 8.09 µM | 26.6 µM | 8.71 µM | 21.6 µM | 5.05 µM | 21 µM | 2.69 µM | 8.62 µM | 10.2 µM | 25 µM
13 | c1cc(-c2cnn3nc(N4CCOCC4)ccc23)nc(NC2CC2)n1 | 8.66 µM | > 25 µM | > 23.6 µM | > 25 µM | 8.14 µM | 24.6 µM | 8.17 µM | > 25 µM | 7.76 µM | > 25 µM | 7.7 µM | 20.3 µM | 6.64 µM | > 23.7 µM | 13.5 µM | > 25 µM | 6.71 µM | > 25 µM | 10.6 µM | > 25 µM
14 | O/N=C1/C(=C/c2ccc(Cl)cc2)CCCC1C(NO)c1ccc(Cl)cc1 (stereo not drawn) |  | 46.8 µM |  | 62.2 µM |  | 40.2 µM |  | 31 µM |  | > 100 µM |  | > 100 µM |  | 22.5 µM |  | 62.8 µM |  | 44.4 µM |  | 76.6 µM
15 | C=C1C(=O)O[C@H]2[C@H]1CC/C(COC(=O)NCc1cccc(OC)c1)=C\CC[C@@]1(C)O[C@@H]21 | 1.38 µM | 2.82 µM | 1.93 µM | 6.79 µM | 3.21 µM | 12.1 µM | 1.6 µM | 3.29 µM | 1.91 µM | 4.24 µM | 1.85 µM | 3.87 µM | 1.84 µM | 3.82 µM | 1.22 µM | 2.8 µM | 1.98 µM | 6.4 µM | 6.42 µM | 20 µM
